The source of these data is publication PMC10135567, “New Indole-3-Propionic Acid and 5-Methoxy-Indole Carboxylic Acid Derived Hydrazone Hybrids as Multifunctional Neuroprotectors” (Antioxidants, 2023).

Data set [1] in a line: MTT cell viability assay (cytotoxicity), bEnd3. It is filed as cell-based, mouse. The conditions noted are these: mouse, bEnd3 brain endothelial cells, 1–500 µM. The procedure, abridged: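 bEnd3 mouse brain endothelial cells (0.7 × 10^4/well, 24 h adherence) were exposed to compounds at 1–500 μM for 24 h, with 0.5% DMSO as solvent control. Viability was read by MTT reduction (0.5 mg/mL, 3 h, 37 °C) as absorbance at 570 nm.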
For orientation: Tetrazolium assays rely on reduction of a dye to a coloured formazan, in cell work by metabolically active cells.

Data set [2] in a line: Fe(II)-induced deoxyribose degradation assay. The conditions noted are these: 80 µM, 2-deoxyribose 0.5 mM, 0.1 mM FeCl2; lower = stronger antioxidant. It is filed as biochemical. The procedure, abridged: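 Deoxyribose (0.5 mM) was incubated with FeCl2 (0.1 mM) and hydrazones in phosphate buffer at pH 7.4 for 30 min at 37 °C. Thiobarbituric acid-reactive chromophore was developed by boiling and read at 532 nm. Activity is expressed as a percentage of the hydrazone-free control.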

Data set [3] concerns isolated rat-brain synaptosomes. Description: 6-OHDA-induced neurotoxicity in isolated rat synaptosomes, synaptosomal viability. It is filed as cell-based. The conditions noted are these: Rattus norvegicus; 10 µM pre-incubation 30 min, then 150 µM 6-OHDA 1 h; read-out: synaptosomal viability (SV) preserved, as compared to 6-OHDA. A digest of the protocol: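 Rat brain synaptosomes were pre-incubated 30 min with 10 µM compound, then exposed to 150 µM 6-hydroxydopamine for 1 h. They were then centrifuged twice (1 min, 15,000 × g) and resuspended in buffer B with glucose before GSH and viability read-outs.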

A short description of data set [4]: O-phenanthroline Fe(II) chelation test. It counts as physicochemical. The following applies: 200 µM compound, FeCl2. A digest of the protocol:
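Hydrazone at 0.2 mM incubated with 0.05 mM FeCl2 and 0.2 mM o-phenanthroline in 50 mM phosphate buffer pH 7 for 5 min at 37 °C. Ferroin absorbance read at 515 nm and expressed as percent of compound-free control; lower absorbance means stronger Fe(II) chelation.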

Data set [5] is described as follows: Superoxide radical scavenging, xanthine/xanthine oxidase/NBT system. It counts as biochemical. The conditions noted are these: 100 µM. A digest of the protocol: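 Inhibition of superoxide-driven NBT reduction was measured in a 1 mL mixture of 1 mM xanthine, xanthine oxidase and 0.04 mM NBT. Hydrazones were tested at final concentrations of 1, 10, 50 and 100 µM. Incubation was at 37 °C, with absorbance read at 560 nm.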

The nature of data set [6]: MTT cell viability assay (cytotoxicity), SH-SY5Y. The following applies: human, SH-SY5Y neuroblastoma cells. A digest of the protocol:
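SH-SY5Y cells seeded at 2 × 10^4 cells/well, adhered 24 h, then exposed to compounds (1–500 μM) for 24 h at 37 °C, 5% CO2; DMSO ≤0.5% as solvent control. MTT (0.5 mg/mL) added for 3 h, formazan dissolved, absorbance read at 570 nm; ≥6 wells per concentration.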

Regarding `COc1ccc2[nH]c(C(=O)NN=Cc3ccc(O)c(OC)c3)cc2c1` [Compound 5d, N′-(4-Hydroxy-3-methoxybenzylidene)-5-methoxy-1H-indole-2-carbohydrazide], the melting point – broadly, the temperature of the solid-liquid transition – came out at 261 °C. In addition, the half-inhibitory concentration (IC50) (as a rule, the point on the concentration scale where inhibition reaches its midpoint) at 24 h in data set [1] was determined as 353 µM. Moreover, the “absorbance ratio, % of the controls (deoxyribose degradation)” value in data set [2] was “did not induce a modulating effect”. Moreover, the viability (usually a per cent measure of how many cells are alive, often set against a control) at 10 µM in data set [3] amounted to 44%. Moreover, the “absorbance at 515 nm compared to the controls (Fe(II) chelation)” value in data set [4] was “statistically identical absorbance values at 515 nm, as compared to the controls”. For the same compound, in data set [5], the “increase of absorbance ratio as compared to the controls” value is given as 23%. For the same compound, the half-maximal inhibitory concentration (IC50) at 24 h in data set [6] amounted to 98.2 µM.
